For test [1], the target named is T1, Mitogen-activated protein kinase kinase kinase 6 (Homo sapiens) (UniProt O95382).
T1 sequence (whole entry): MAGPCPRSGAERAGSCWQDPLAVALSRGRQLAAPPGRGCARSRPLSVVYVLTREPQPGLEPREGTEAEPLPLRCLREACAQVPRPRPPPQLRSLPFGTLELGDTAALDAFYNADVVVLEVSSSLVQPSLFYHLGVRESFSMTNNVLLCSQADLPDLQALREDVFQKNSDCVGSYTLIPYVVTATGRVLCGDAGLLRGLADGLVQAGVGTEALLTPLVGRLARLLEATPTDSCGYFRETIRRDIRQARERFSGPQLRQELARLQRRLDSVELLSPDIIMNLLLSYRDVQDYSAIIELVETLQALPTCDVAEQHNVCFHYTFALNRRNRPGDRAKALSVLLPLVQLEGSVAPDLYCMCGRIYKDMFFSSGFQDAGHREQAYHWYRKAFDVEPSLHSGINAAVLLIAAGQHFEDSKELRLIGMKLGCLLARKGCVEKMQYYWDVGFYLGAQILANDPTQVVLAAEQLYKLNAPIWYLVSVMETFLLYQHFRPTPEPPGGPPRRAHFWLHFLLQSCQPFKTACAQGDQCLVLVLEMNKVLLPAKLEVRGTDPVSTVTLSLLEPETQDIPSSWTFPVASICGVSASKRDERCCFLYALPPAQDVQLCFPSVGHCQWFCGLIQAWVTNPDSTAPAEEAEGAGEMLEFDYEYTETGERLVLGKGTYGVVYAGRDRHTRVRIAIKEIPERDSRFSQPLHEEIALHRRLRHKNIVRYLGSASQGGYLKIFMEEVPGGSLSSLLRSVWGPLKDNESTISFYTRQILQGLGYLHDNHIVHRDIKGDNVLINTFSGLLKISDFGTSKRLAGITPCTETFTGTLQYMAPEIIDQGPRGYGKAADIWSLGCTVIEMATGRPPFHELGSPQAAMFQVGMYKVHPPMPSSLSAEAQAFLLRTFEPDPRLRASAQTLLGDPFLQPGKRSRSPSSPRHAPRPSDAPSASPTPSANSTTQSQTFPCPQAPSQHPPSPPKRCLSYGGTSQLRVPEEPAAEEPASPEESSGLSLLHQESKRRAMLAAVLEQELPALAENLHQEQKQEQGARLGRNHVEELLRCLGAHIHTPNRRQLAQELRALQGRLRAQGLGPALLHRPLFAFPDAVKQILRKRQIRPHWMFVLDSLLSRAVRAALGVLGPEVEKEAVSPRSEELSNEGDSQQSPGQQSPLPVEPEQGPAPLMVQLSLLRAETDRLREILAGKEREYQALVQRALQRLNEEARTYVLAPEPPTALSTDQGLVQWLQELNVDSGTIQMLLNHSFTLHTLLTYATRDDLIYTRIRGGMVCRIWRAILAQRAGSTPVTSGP
As to the kind of experiment: Selectivity interaction (KinomeScan (DiscoverX)) EUB0001079a MAP3K6. To be noted: at 1 µM.

Test [2] deals with T2, Testis-specific serine/threonine-protein kinase 3 (Homo sapiens) (UniProt Q96PN8).
T2 sequence (whole entry): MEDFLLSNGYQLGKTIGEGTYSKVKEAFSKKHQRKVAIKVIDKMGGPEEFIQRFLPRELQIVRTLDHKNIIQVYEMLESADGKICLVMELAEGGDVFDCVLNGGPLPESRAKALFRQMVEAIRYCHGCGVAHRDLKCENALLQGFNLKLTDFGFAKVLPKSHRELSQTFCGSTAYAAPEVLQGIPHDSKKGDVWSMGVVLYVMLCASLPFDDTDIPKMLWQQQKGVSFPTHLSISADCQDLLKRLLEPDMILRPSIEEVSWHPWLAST
As to the kind of experiment: Selectivity interaction (Kinase panel (Z-LYTE Assay)) EUB0001632a TSSK3. To be noted: at 10 µM.

The target in test [3] is Calcium/calmodulin-dependent protein kinase type II subunit beta (Homo sapiens) (UniProt Q13554). As to the kind of experiment: Selectivity interaction (ActivX KiNativ screen (kinase selectivity in THP-1 cell lysates)) EUB0000639a CAMK2B. It is filed as subcellular. Conditions: lysate.
Chain of Calcium/calmodulin-dependent protein kinase type II subunit beta (Homo sapiens) (Q13554 whole entry): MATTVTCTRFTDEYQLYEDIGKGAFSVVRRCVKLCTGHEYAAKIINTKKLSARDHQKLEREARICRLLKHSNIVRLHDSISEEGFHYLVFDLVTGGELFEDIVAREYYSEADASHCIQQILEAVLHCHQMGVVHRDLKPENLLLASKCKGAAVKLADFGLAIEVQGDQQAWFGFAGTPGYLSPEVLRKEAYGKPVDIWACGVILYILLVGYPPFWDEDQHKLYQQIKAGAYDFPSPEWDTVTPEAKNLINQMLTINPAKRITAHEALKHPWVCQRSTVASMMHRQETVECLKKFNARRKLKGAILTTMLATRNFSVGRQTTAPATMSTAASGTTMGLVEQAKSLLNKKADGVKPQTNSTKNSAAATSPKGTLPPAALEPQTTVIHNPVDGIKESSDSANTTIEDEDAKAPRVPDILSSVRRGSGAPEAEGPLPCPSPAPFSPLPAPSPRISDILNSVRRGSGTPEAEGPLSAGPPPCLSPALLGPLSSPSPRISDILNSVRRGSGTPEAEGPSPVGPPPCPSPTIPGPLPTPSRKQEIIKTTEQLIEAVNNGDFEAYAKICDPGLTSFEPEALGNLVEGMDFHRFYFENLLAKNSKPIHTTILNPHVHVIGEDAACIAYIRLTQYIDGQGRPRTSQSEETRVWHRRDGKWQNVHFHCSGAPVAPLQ
The target in test [4] is T3, Ephrin type-B receptor 1 (Homo sapiens) (UniProt P54762).
T3 sequence (whole entry): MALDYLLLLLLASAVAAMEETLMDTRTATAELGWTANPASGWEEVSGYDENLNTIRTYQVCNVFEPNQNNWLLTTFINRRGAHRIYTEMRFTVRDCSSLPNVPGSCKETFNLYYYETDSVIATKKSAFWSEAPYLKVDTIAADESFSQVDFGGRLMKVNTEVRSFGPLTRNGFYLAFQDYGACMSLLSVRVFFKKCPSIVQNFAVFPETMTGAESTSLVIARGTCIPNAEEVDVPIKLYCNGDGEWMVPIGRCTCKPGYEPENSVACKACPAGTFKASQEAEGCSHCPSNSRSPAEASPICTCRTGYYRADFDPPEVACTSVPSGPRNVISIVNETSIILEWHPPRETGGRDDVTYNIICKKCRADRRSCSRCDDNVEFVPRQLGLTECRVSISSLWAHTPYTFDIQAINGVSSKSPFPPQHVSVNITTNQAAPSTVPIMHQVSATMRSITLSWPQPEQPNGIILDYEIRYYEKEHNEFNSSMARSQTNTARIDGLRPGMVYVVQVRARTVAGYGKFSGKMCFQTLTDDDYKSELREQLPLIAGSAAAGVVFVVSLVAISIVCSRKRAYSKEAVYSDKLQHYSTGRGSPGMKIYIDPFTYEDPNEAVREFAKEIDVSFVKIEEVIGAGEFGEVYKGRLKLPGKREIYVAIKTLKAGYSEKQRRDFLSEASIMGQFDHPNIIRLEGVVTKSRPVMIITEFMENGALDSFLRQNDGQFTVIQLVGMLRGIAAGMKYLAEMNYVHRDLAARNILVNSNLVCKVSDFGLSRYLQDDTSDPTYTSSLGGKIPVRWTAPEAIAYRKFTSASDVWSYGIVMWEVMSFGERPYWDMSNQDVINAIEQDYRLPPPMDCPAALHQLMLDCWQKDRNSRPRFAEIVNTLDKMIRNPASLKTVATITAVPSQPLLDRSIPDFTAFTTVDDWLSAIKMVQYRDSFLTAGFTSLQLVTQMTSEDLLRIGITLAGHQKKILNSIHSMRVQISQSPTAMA
As to the kind of experiment: Selectivity interaction (KinomeScan (DiscoverX)) EUB0000618a EPHB1. Conditions: at 10 µM.

Molecule `Nc1cnc(N2CCc3cc(S(=O)(=O)Nc4c(F)cc(Cl)cc4F)cc(N4CCCC4=O)c32)nc1` [TP-020n] displayed a % of control in test [1] of 75%.

The molecule `Cn1cc(-n2cnc3c(NCc4nc5cc(Cl)c(Cl)cc5[nH]4)nc(N4CCOCC4)nc32)cn1` displayed a % of control in test [2] of 4.44%.

Consider `CC[C@@H]1[C@H](F)C(=O)N[C@@H]1COc1nccc2cc(C(N)=O)c(OC)cc12` [ZIMLOVISERTIB], for which the % of inhibition in test [3] (at 0.01 µM) worked out at 3.3%; in test [3] (at 0.04 µM), 16.7%; in test [3] (at 0.2 µM) it was 6.9%; in test [3] (at 1 µM), 25.1%; in test [3] (at 5 µM), 56.2%.

As for `O[C@H]1CC[C@H](Nc2ncc3nc(Nc4c(F)cc(F)cc4F)n([C@H]4CCOC4)c3n2)CC1`, the % of control in test [4] came to 96%.

The record behind these values is ChEMBL document CHEMBL5465560, “Selectivity Literature for EUbOPEN Chemogenomic Library” (2024).
